Assay results reported in patent US10845371B2, “Soluble MANF in pancreatic beta-cell disorders” (University of Massachusetts, priority 2012, dated 2020).

Columns and labels:
[1] = system: MEROS-GFP (ER redox state) in INS-1 832/13 cells; assay: Median MEROS-GFP ratio in thapsigargin-treated INS-1 832/13 cells; type: cell-based, rat; conditions: 10 nM thapsigargin; 10 μM pioglitazone or 500 μg/mL TUDCA, FIG. 38 right panel
Procedure: (§1) FIG. 38 is two graphs showing the percentage of dead cells (left graph) or the median MEROS-GFP ratio (right graph) of INS-1 832/13 cells treated with DMSO alone, 10 nM thapsigargin (Tg), 10 nM Tg and 10 μM pioglitazone, or 10 nM Tg and 500 μg/mL tauroursodeoxycholic acid (TUDCA).
To investigate this possibility, two FDA-approved drugs, pioglitazone (Actos) and tauroursodeoxycholic acid (TUDCA), could affect the ER redox state and ameliorate cell death in cellular models of ER diseases. […] Another small molecule, TUDCA, has been used for treatment of gallstones and biliary cirrhosis and shown to mitigate ER stress in mouse models of diabetes.

INS-1 832/13 cells [2] = assay: Percentage of dead cells in thapsigargin-treated INS-1 832/13 cells; type: cell-based, rat
Procedure: as §1
FIG. 43 is a graph of the percentage of dead cells following no treatment or treatment with 10 nM thapsigargin (Tg) or treatment with 10 nM Tg and 10 nM apomorphine.

[3] = system: INS-1 832/13 cells expressing MEROS-GFP; assay: Reduced-ER cell population (MEROS-GFP FACS) after palmitate challenge; type: cell-based, rat; conditions: apomorphine 24 hours (10 μM per FIG. 40), then 0.5 mM palmitate 24 hours
INS-1 832/13 cells [4] = assay: Mitochondrial membrane potential (MitoProbe staining) after palmitate; type: cell-based, rat; conditions: 0.5 mM palmitate; 10 nM or 50 nM apomorphine, FIGS. 41 and 42
INS-1 832/13 cells [5] = assay: Cell viability (propidium iodide) after palmitate; type: cell-based, rat; conditions: 0.5 mM palmitate and 10 nM apomorphine, FIG. 42
human islets = assay: Thapsigargin-mediated cell death in primary human islets (cleaved caspase 3 / PARP immunoblot); type: cell-based; conditions: 10 nM thapsigargin; 10 nM apomorphine or 10 μM pioglitazone, FIG. 44
Procedure: (§2) FIG. 44 are two immunoblots showing the amount of cleaved caspase 3 (c-caspase3) and cleaved PARP (c-PARP) present in 10 nM thapsigargin-treated primary human islets (right immunoblot) and 2 μM doxycycline-treated WFS1 knockdown INS-1 832/13 cells (shWFS1) (left immunoblot) treated with 10 nM apomorphine or 10 μM pioglitazone.
Additional experiments were performed to determine whether apomorphine and pioglitazone can protect human islets from ER stress-mediated cell death.

[6] = system: WFS1-knockdown β-cells (INS-1 832/13-derived); assay: Doxycycline-inducible WFS1 knockdown INS-1 832/13 cells, cellular model of Wolfram syndrome; type: cell-based, rat; conditions: 2 μM doxycycline shWFS1; 10 nM apomorphine or 10 μM pioglitazone, FIG. 44
Procedure: as §2
Additional experiments were performed using INS-1 832/13-derived doxycycline-inducible WFS1 knockdown cells, a cellular model of Wolfram syndrome. This model was used to test whether apomorphine and pioglitazone could prevent cell death.

[7] = system: MEROS-GFP (ER redox state) in INS-1 832/13 cells; assay: MEROS-GFP pilot screen of 1280-compound library and follow-up screens; type: cell-based, rat; conditions: DTT screen, 0.4 mM palmitate + 20 mM glucose screen, FACS confirmation with 0.5 mM palmitate
Procedure: A pilot screen of a 1280-compound library (MicroSource), a collection of 1,040 U.S. drugs and 240 international drugs (FIG. 39) was performed. In this experiment, INS-1 832/13 cells stably-expressing MEROS-GFP were seeded (20,000 cells/well) in black optical 96-well plates. After 24 hours, 2 μL of each compound was added using the TeMo liquid handling robot. After another 24 hours, cells were challenged with 0.2 mM DTT, a strong reducing agent, for 2 hours, and then the MEROS-GFP ratio was calculated.

INS-1 832/13 cells [8] = assay: Toxicity on INS-1 832/13 cells; type: cell-based, rat
[9] = system: mouse pancreatic β-cell line (MIN6); assay: Cleaved caspase-3 immunoblot in MIN6 cells treated with tunicamycin and soluble MANF; type: cell-based; conditions: tunicamycin 1 μM, 24 hours; 0, 40 or 200 nM soluble MANF, FIG. 8
Procedure: FIG. 8 is an immunoblot showing the levels of cleaved caspase-3 in a murine pancreatic β-cell line (MIN6) untreated or treated for 24-hours with 1 μM tunicamycin or 100 nM thapsigargin, and further treated with 0, 40, or 200 nM soluble MANF.
Additional experiments were performed to determine whether soluble MANF would decrease or delay endoplasmic reticulum stress-induced apoptosis in pancreatic β-cells treated with an endoplasmic reticulum stress-inducing chemical agent.

[10] = system: INS-1 832/13 cells (a pancreatic β-cell line); assay: Reduced MEROS-GFP by FACS in INS-1 832/13 cells in high glucose with soluble MANF; type: cell-based, rat; conditions: 25 mM glucose; 0.5 μg/mL soluble MANF (48 hours per FIG. 45)
Procedure: FIG. 45 is a graph of fluorescence-assisted cell sorting data showing the percentage of INS1 832/13 cells (pancreatic (3 cell line) containing the reduced form of EroGFP in the endoplasmic reticulum following culture in 11 mM glucose or 25 mM glucose (24 hours) (top panels and bottom panels, respectively), and treatment with 0 or 0.5 μg/mL soluble MANF for 48 hours (left panels and right panels, respectively). The cells were excited using a wavelength at 473 nm and an emission spectrum of 510 nm.
Further experiments were performed to determine whether soluble MANF can prevent fluctuations in the redox environment in the endoplasmic reticulum of pancreatic β-cells upon exposure to an agent that induces endoplasmic reticulum stress. Experiments were performed using INS-1 832/13 cells (a pancreatic β-cell line) transfected with a lentivirus vector expressing MEROS-GFP. The cells were cultured in 11 mM or 25 mM glucose, and either left untreated or treated with 0.5 μg/mL soluble MANF. The cells were then analyzed using FACS analysis using an excitation spectrum between 460-495 nm and an emission spectrum of between 520-570 nm (FITC-A optical filter) which allows for the specific detection of fluorescent emission from reduced EroGFP in the transfected cells.

Molecule: C[C@H](CCC(=O)NCCS(=O)(=O)O)[C@H]1CC[C@H]2[C@@H]3[C@@H](O)C[C@@H]4C[C@H](O)CC[C@]4(C)[C@H]3CC[C@]12C [TUDCA, tauroursodeoxycholic acid]
- ER redox state (median MEROS-GFP ratio) [1]: shift the ER towards an oxidizing environment
- Cell death (percentage of dead cells) (INS-1 832/13 cells [2]; 10 nM thapsigargin, 10 μM pioglitazone or 500 μg/mL TUDCA, FIG. 38 left panel): protect cells from death under ER stress conditions

Molecule: CN1CCc2cccc3c2[C@H]1Cc1ccc(O)c(O)c1-3 [apomorphine]
- Cell death (percentage of dead cells) (INS-1 832/13 cells [2]; 10 nM thapsigargin and 10 nM apomorphine, FIG. 43): protected INS-1 832/13 cells from ER stress-mediated cell death
- Population of cells that had reduced ER [3]: decreased the population of cells that had reduced ER
- Population with lower mitochondrial membrane potential (INS-1 832/13 cells [4]): decreased the population with lower mitochondrial membrane potential
- ER stress-induced cell death (propidium iodide) (INS-1 832/13 cells [5]): suppressed ER stress-induced cell death
- Thapsigargin-mediated cell death (human islets): could protect human islets from thapsigargin-mediated cell death
- Cell death of WFS1-knockdown cells [6]: could protect WFS1-knockdown β-cells from cell death
- Cleavage of PARP (caspase 3 substrate) [6]: suppressed
- Cleavage of caspase 3 [6]: suppressed cleavage of caspase 3

Molecule: COC1=CC(=O)C[C@@H](C)[C@]12Oc1c(Cl)c(OC)cc(OC)c1C2=O [griseofulvin]
- Outcome in the screening assays [7]: positively identified in the screening assays
- Toxic effects on cells (INS-1 832/13 cells [8]): strong toxic effects

B1: soluble MANF: soluble mammalian form of mesencephalic astrocyte-derived neurotrophic factor, e.g. human SEQ ID NO: 2; species of tested protein not stated (protein)
chain: LRPGDCEVCISYLGRFYQDLKDRDVTFSPATIENELIKFCREARGKENRLCYYIGATDDAATKIINEVSKPLAHHIPVEKICEKLKKKDSQICELKYDKQIDLSTVDLKKLRVKELKKILDDWGETCKGCAEKSDYIRKINELMPKYAPKAASARTDL
- Caspase-3 cleavage [9]: significantly reduced the amount of caspase-3 cleavage
- Number of cells containing a detectable level of reduced MEROS-GFP [10]: decrease in the number of cells containing a detectable level of reduced MEROS-GFP
